Key:
KRas G12C = KRas G12C (Homo sapiens, UniProt P01116, G12C); experiment: biochemical;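 further: binding to KRas assessed by TR-FRET displacement after one hour incubation at room temperature, potency fitted from percent-of-control values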
Description: (§1) The ability of a compound to bind to KRas was measured using a TR-FRET displacement assay. […] After a 60-minute incubation at room temperature, the reaction was measured using a BMG LABTECH CLARIO star Plus via TR-FRET. […] The POC values were fit to a 4-parameter IC50 equation and the IC50 value reported.

KRas WT = KRas WT (Homo sapiens, UniProt P01116); experiment: biochemical;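 further: binding to KRas read as TR-FRET displacement after a one-hour room-temperature incubation, IC50 derived from percent-of-control values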
Description: as §1

KRas G12A = KRas G12A (Homo sapiens, UniProt P01116, G12A); experiment: biochemical;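 further: binding to KRas measured by TR-FRET displacement after one hour at room temperature, IC50 from a four-parameter fit of percent-of-control values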
Chain of KRas G12A (P01116 1-169 isoform P01116-2 G12A): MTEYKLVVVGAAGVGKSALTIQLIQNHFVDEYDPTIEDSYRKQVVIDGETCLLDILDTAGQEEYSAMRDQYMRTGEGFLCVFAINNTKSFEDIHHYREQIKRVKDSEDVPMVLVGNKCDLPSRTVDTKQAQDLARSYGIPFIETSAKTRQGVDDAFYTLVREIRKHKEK
Description: as §1

KRas G13D = biological target: T1, KRas G13D (Homo sapiens, UniProt P01116, G13D); experiment: KRas binding assay (TR-FRET displacement);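 further: One-hour room temperature incubation before TR-FRET reading, IC50 from a four-parameter curve fit to percent-of-control data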
T1 construct: Biotinylated KRas (corresponding to amino acids 1-169, produced at Accelegan Inc.); biotin (biotinylated); purchased Accelegan Inc
T1 sequence (P01116 1-169 isoform P01116-2 G13D): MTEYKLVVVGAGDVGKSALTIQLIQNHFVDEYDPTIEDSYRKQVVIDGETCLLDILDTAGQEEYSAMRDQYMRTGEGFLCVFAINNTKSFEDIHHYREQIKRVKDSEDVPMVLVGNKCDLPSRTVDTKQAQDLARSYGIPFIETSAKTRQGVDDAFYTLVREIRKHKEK
Description: as §1

KRas G12R = KRas G12R (Homo sapiens, UniProt P01116, G12R); experiment: biochemical;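 further: TR-FRET displacement assay of compound binding to KRas, read after one hour at room temperature, potency from a four-parameter fit of percent-of-control values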
Chain of KRas G12R (P01116 1-169 isoform P01116-2 G12R): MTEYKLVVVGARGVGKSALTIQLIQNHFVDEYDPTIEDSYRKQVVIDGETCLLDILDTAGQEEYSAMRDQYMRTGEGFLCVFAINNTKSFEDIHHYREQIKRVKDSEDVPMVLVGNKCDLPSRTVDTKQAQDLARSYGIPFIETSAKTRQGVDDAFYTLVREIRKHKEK
Description: as §1

KRas G12D = KRas G12D (Homo sapiens, UniProt P01116, G12D); experiment: biochemical;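 further: TR-FRET displacement binding assay on KRas, read after a one-hour incubation at room temperature, IC50 fitted from percent-of-control values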
Chain of KRas G12D (P01116 1-169 isoform P01116-2 G12D): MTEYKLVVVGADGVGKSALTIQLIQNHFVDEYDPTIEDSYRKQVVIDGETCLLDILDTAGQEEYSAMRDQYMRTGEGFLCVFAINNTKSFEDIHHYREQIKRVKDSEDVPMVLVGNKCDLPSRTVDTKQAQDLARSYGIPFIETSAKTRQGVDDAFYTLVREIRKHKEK
Description: as §1

KRas Q61H = biological target: T2, KRas Q61H (Homo sapiens, UniProt P01116, Q61H); experiment: KRas binding assay (TR-FRET displacement);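 further: TR-FRET signal read after one hour at room temperature, IC50 derived by four-parameter fitting of percent-of-control values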
T2 construct: Biotinylated KRas (corresponding to amino acids 1-169, produced at Accelegan Inc.); biotin (biotinylated); purchased Accelegan Inc
T2 sequence (P01116 1-169 isoform P01116-2 Q61H): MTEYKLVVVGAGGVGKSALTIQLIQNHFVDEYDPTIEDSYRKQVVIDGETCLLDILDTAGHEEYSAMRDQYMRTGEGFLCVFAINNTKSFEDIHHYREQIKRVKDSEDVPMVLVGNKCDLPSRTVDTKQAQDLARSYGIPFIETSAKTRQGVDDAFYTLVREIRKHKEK
Description: as §1

KRas G12V = KRas G12V (Homo sapiens, UniProt P01116, G12V); experiment: biochemical;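 further: KRas binding measured by TR-FRET displacement at room temperature, IC50 fitted from percent of control values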
Chain of KRas G12V (P01116 1-169 isoform P01116-2 G12V): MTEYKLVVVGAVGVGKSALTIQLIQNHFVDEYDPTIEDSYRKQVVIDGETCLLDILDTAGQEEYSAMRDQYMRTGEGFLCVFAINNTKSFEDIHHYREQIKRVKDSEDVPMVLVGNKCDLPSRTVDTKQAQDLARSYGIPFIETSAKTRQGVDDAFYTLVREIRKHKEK
Description: as §1

KRas G12S = KRas G12S (Homo sapiens, UniProt P01116, G12S); experiment: biochemical;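 further: TR-FRET displacement binding to KRas, read after one hour incubation at room temperature, IC50 from four-parameter fit of percent of control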
Chain of KRas G12S (P01116 1-169 isoform P01116-2 G12S): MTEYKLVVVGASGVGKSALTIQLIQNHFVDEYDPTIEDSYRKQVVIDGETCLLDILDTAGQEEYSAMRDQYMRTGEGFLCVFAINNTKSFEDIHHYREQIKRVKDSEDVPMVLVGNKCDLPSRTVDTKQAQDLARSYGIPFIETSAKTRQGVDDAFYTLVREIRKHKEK
Description: as §1

Chain of KRas G12C (P01116 1-169 isoform P01116-2 G12C): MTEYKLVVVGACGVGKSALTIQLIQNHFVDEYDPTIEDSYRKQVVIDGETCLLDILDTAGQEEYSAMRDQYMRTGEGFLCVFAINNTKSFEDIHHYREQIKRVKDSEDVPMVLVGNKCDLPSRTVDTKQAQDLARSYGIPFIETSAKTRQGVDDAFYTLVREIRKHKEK
Chain of KRas WT (P01116 1-169 isoform P01116-2): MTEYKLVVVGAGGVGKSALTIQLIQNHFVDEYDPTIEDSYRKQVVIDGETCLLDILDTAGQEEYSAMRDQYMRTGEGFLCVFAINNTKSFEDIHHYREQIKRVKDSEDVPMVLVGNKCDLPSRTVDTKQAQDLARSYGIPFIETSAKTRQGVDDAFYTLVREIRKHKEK

Row | Structure (SMILES) | IC50 (KRas G12C) | IC50 (KRas WT) | IC50 (KRas G12A) | IC50 (KRas G13D) | IC50 (KRas G12R) | IC50 (KRas G12D) | IC50 (KRas Q61H) | IC50 (KRas G12V) | IC50 (KRas G12S)
1 | CN(Cc1c[nH]c2ncccc12)c1nc(OCC23CCCN2CCC3)nc2c(F)c(-c3cccc4cccc(F)c34)ncc12 [Example 223, N-((1H-pyrrolo[2,3-b]pyridin-3-yl)methyl)-8-fluoro-7-(8-fluoronaphthalen-1-yl)-N-methyl-2-((tetrahydro-1H-pyrrolizin-7a(5H)-yl)methoxy)pyrido[4,3-d]pyrimidin-4-amine] | 1.19 µM | 5.6 µM | 1.36 µM | 6870 nM | 0.665 µM | 21.1 µM | 8650 nM | 0.93 µM | 1.8 µM
2 | Fc1c(-c2cccc3cccc(F)c23)ncc2c(N3CCCC(c4cc[nH]n4)C3)nc(OCC34CCCN3CCC4)nc12 (stereo not drawn) [Example 131, 4-(3-(1H-pyrazol-3-yl)piperidin-1-yl)-8-fluoro-7-(8-fluoronaphthalen-1-yl)-2-((tetrahydro-1H-pyrrolizin-7a(5H)-yl)methoxy)pyrido[4,3-d]pyrimidine] | 3.45 µM | 8.21 µM | 4.46 µM | 6560 nM | 2.79 µM | 14.6 µM | 7690 nM | 8.3 µM | 9.29 µM
3 | O=C1NCC(CNc2nc(OCC34CCCN3CCC4)nc3c(F)c(-c4cccc5cccc(F)c45)ncc23)O1 (stereo not drawn) [Example 110, 5-(((8-fluoro-7-(8-fluoronaphthalen-1-yl)-2-((tetrahydro-1H-pyrrolizin-7a(5H)-yl)methoxy)pyrido[4,3-d]pyrimidin-4-yl)amino)methyl)oxazolidin-2-one] | 5.22 µM | 8.81 µM | 9.28 µM | 9330 nM | 2.48 µM | 26.9 µM | 10100 nM | 3.97 µM | 4.37 µM
4 | O=C1CC2(CCN(c3nc(OCC45CCCN4CCC5)nc4c(F)c(-c5cccc6cccc(F)c56)ncc34)CC2)N1 [Example 77, 7-(8-fluoro-7-(8-fluoronaphthalen-1-yl)-2-((hexahydro-1H-pyrrolizin-7a-yl)methoxy)pyrido[4,3-d]pyrimidin-4-yl)-1,7-diazaspiro[3.5]nonan-2-one] | 1.64 µM | 1.41 µM | 1.06 µM | 1210 nM | 2.21 µM | 12.8 µM | 1910 nM | 1.35 µM | 1.17 µM
5 | Fc1c(-c2cccc3cccc(F)c23)ncc2c(NCc3ccc4[nH]cnc4c3)nc(OCC34CCCN3CCC4)nc12 [Example 80, N-((1H-benzo[d]imidazol-5-yl)methyl)-8-fluoro-7-(8-fluoronaphthalen-1-yl)-2-((hexahydro-1H-pyrrolizin-7a-yl)methoxy)pyrido[4,3-d]pyrimidin-4-amine] | 1.25 µM | 6.84 µM | 1.58 µM | 6310 nM | 1.47 µM | 29.8 µM | 10700 nM | 1.59 µM | 2.57 µM
6 | Cn1ncc2ccc(Nc3nc(OCC45CCCN4CCC5)nc4c(F)c(-c5cccc6cccc(F)c56)ncc34)cc21 [Example 99, 8-fluoro-7-(8-fluoronaphthalen-1-yl)-2-((hexahydro-1H-pyrrolizin-7a-yl)methoxy)-N-(1-methyl-1H-indazol-6-yl)pyrido[4,3-d]pyrimidin-4-amine] | 8.33 µM | 32.4 µM | 13.6 µM | 59800 nM | 16.7 µM | ≥ 100 µM | 98500 nM | 3.97 µM | 21.7 µM
7 | Fc1c(-c2cccc3cccc(F)c23)ncc2c(NCc3ccc4nccn4c3)nc(OCC34CCCN3CCC4)nc12 [Example 208, 8-fluoro-7-(8-fluoronaphthalen-1-yl)-N-(imidazo[1,2-a]pyridin-6-ylmethyl)-2-((tetrahydro-1H-pyrrolizin-7a(5H)-yl)methoxy)pyrido[4,3-d]pyrimidin-4-amine] | 0.677 µM | 4.01 µM | 1.3 µM | 6250 nM | 0.494 µM | 17.4 µM | 7150 nM | 0.824 µM | 2.26 µM

Now from value to compound:

Row | IC50 (KRas G12C) | IC50 (KRas WT) | IC50 (KRas G12A) | IC50 (KRas G13D) | IC50 (KRas G12R) | IC50 (KRas G12D) | IC50 (KRas Q61H) | IC50 (KRas G12V) | IC50 (KRas G12S) | Structure (SMILES)
8 | 0.891 µM | 0.864 µM | 0.759 µM | 860 nM | 1.04 µM | 3.56 µM | 1170 nM | 0.802 µM | 0.531 µM | OC1CC2CC1CN(c1nc(OCC34CCCN3CCC4)nc3c(F)c(-c4cccc5cccc(F)c45)ncc13)C2 (stereo not drawn) [Example 81, 3-(8-fluoro-7-(8-fluoronaphthalen-1-yl)-2-((hexahydro-1H-pyrrolizin-7a-yl)methoxy)pyrido[4,3-d]pyrimidin 4-yl)-3-azabicyclo[3.2.1]octan-6-ol]
9 | 1.65 µM | 2.65 µM | 2.15 µM | 2710 nM | 2.87 µM | 2.66 µM | 3360 nM | 1.7 µM | 2.01 µM | OC1CC2(CCCN(c3nc(OCC45CCCN4CCC5)nc4c(F)c(-c5cccc6cccc(F)c56)ncc34)C2)C1 (stereo not drawn) [Example 235, 6-(8-fluoro-7-(8-fluoronaphthalen-1-yl)-2-((hexahydro-1H-pyrrolizin-7a-yl)methoxy)pyrido[4,3-d]pyrimidin-4-yl)-6-azaspiro[3.5]nonan-2-ol]
10 | 5.94 µM | 6.09 µM | 7.12 µM | 5260 nM | 11.9 µM | 3.36 µM | 9500 nM | 3.66 µM | 10.8 µM | N#CC1CCCN(c2nc(OCC34CCCN3CCC4)nc3c(F)c(-c4cccc5cccc(F)c45)ncc23)CC1 (stereo not drawn) [Example 87, 1-(8-fluoro-7-(8-fluoronaphthalen-1-yl)-2-((hexahydro-1H-pyrrolizin-7a-yl)methoxy)pyrido[4,3-d]pyrimidin-4-yl)azepane-4-carbonitrile]
11 | 1.06 µM | 0.997 µM | 1.3 µM | 1360 nM | 2.55 µM | 0.568 µM | 1550 nM | 1.36 µM | 1.15 µM | CC1(O)COCCN(c2nc(OCC34CCCN3CCC4)nc3c(F)c(-c4cccc5cccc(F)c45)ncc23)C1 (stereo not drawn) [Example 64, 4-(8-fluoro-7-(8-fluoronaphthalen-1-yl)-2-((hexahydro-1H-pyrrolizin-7a-yl)methoxy)pyrido[4,3-d]pyrimidin-4-yl)-6-methyl-1,4-oxazepan-6-ol]
12 | 0.509 µM | 1.2 µM | 0.735 µM | 1890 nM | 0.992 µM | 0.392 µM | 1990 nM | 0.498 µM | 0.703 µM | OCC1COCCN(c2nc(OCC34CCCN3CCC4)nc3c(F)c(-c4cccc5cccc(F)c45)ncc23)C1 (stereo not drawn) [Example 83, (4-(8-fluoro-7-(8-fluoronaphthalen-1-yl)-2-((hexahydro-1H-pyrrolizin-7a-yl)methoxy)pyrido[4,3-d]pyrimidin-4-yl)-1,4-oxazepan-6-yl)methanol]
13 | 6.15 µM | 4.3 µM | 2.65 µM | 7380 nM | 5.56 µM | 6.7 µM | 5350 nM | 4.64 µM | 7.45 µM | OC1CCC12CCCN(c1nc(OCC34CCCN3CCC4)nc3c(F)c(-c4cccc5cccc(F)c45)ncc13)C2 (stereo not drawn) [Example 233, 6-(8-fluoro-7-(8-fluoronaphthalen-1-yl)-2-((tetrahydro-1H-pyrrolizin-7a(5H)-yl)methoxy)pyrido[4,3-d]pyrimidin-4-yl)-6-azaspiro[3.5]nonan-1-ol]

From patent publication US12398154B2, “Azaquinazoline pan-KRas inhibitors” (Mirati Therapeutics, Inc., priority 2020, dated 2025)
